Experimental data published in publication PMC9181899, “Synthesis and Anticancer Properties of New 3-Methylidene-1-sulfonyl-2,3-dihydroquinolin-4(1H)-ones” (Molecules, 2022).
Like-named read-outs stand apart in the source and are kept apart here.

Key:
MCF-7 cells = assay: MTT in vitro cytotoxicity assay, MCF-7; assay type: cell-based; conditions: mean ± SEM
Method: (§1) The promyelocytic leukemia HL-60 and breast cancer adenocarcinoma MCF-7 cell lines were purchased from the European Collection of Cell Cultures (ECACC). Leukemia cells were cultured in RPMI 1640 plus GlutaMax I medium (Gibco/Life Technologies, Carlsbad, CA, USA). MCF-7 cells were maintained in Minimum Essential Medium Eagle (Sigma Aldrich, St. Louis, MO, USA) and supplemented with 2 mM glutamine and men non-essential amino acid solution (Sigma Aldrich, St. Louis, MO, USA). Both media were supplemented with 10% heat-inactivated fetal bovine serum (Biological Industries, Beit-Haemek, Israel) and antibiotics (100 U/mL penicillin and 100 μg/mL streptomycin) (Sigma-Aldrich, St. Louis, MO, USA). Human umbilical vein endothelial cells (HUVECs) were purchased from the American Type Culture Collection (ATCC). Cells were cultured using EGM-2 Endothelial Medium BulletKit purchased from Lonza (Lonza, Walkersville, MD, USA). Cells were maintained at 37 °C in 5% CO2 atmosphere and grown until 80% confluent.
(§2) The tested compounds were dissolved in sterile dimethyl sulfoxide (DMSO) and further diluted with culture medium. The final concentration of DMSO in cell cultures was less than 0.1% v/v. Controls without and with 0.1% DMSO were performed in each experiment. At the used concentration, DMSO had no effect on the observed parameters.
(§3) The MTT (3-(4,5-dimethylthiazol-2-yl)-2,5-diphenyltetrazolium bromide) assay, which measures the activity of cellular dehydrogenases, was performed according to the Mosmann method. Exponentially growing cells were seeded into 24-well plates at a density of 8 × 10^4 cells/mL and left to grow for 24 h. After 24 h or 48 h of incubation with various concentrations of the tested compounds (dissolved in DMSO and diluted with complete culture medium), cells were incubated with 0.1 mL of MTT solution (5 mg/mL in phosphate buffered saline) for 1.5 h. The metabolically active cells reduced MTT to blue formazan crystals. The plates were centrifuged, and the supernatant was discarded. DMSO (1 mL) was added to each well to dissolve the crystals, whose absorbance was measured at 560 nm using FlexStation 3 Multi-Mode Microplate Reader (Molecular Devices, LLC, San Jose, CA, USA). The untreated cells were used as control. The IC50 values were calculated from the concentration–response curves. The data were expressed as mean ± SEM of three independent experiments.

HL-60 cells [1] = assay: MTT in vitro cytotoxicity assay, HL-60; assay type: cell-based; conditions: 48 h incubation, mean ± SEM, read-out: IC50 HL-60
Method: as §1, §2, §3

HUVEC cells = assay: MTT in vitro cytotoxicity assay, HUVEC (normal cells); assay type: cell-based, human; conditions: 48 h incubation, mean ± SEM
Method: as §1, §2, §3

HL-60 cells [2] = assay: Apoptosis by cleaved PARP (Asp214) staining, flow cytometry; assay type: cell-based; conditions: 24 h, control 1.4%
Method: To evaluate the anticancer potential of 5a, the ability of this compound to inhibit cell proliferation, induce apoptotic cell death, and generate DNA damage was examined by flow cytometry using the ‘Apoptosis, DNA Damage, and Cell Proliferation Kit’ (BD Bioscience). After 24 h treatment with 5a in increasing concentrations, HL-60 cells were exposed to bromodeoxyuridine (BrdU) for additional 8 h. Then, the cells were simultaneously stained with fluorochrome-labeled anti-BrdU, anti-cleaved PARP (Asp214) and anti-H2AX (pS139).
To check whether the cytotoxic effect of 5a was associated with the induction of apoptosis, the pro-apoptotic activity of this compound was investigated. Apoptosis regulation is triggered by the activation of caspases. Caspase-3, an effector caspase, cleaves a number of vital proteins, leading to cell death. The activity of caspase-3 was assessed by flow cytometry using fluorochrome-labeled antibodies recognizing 89 kDa-cleaved PARP fragments released from PARP by caspase-3 in the executive stage of apoptosis.
Cell proliferation, DNA damage, and apoptotic cell death were determined using Apoptosis, DNA Damage, and Cell Proliferation Kit (BD Bioscience, San Jose, CA, USA), according to the manufacturer protocol. Briefly, HL-60 cells were seeded in 6-well plates (4.0 × 10^5 cells/mL) in 2 mL of growth medium and treated with 5a for 24 h. Afterwards, the bromodeoxyuridine (BrdU, 10 µM) was added and the cells were incubated for additional 8 h. Next, the cells were collected by centrifugation (300× g, 5 min), counted, fixed, and permeabilized according to the manufacturer’s instructions. The cells were incubated with DNase (300 µg/mL in PBS) for 1 h at 37 °C and then simultaneously stained with fluorochrome-labeled anti-BrdU, H2AX (pS139), and cleaved PARP (Asp214) antibodies, for 20 min at room temperature. After washing, DNA staining with DAPI (1 µg/mL of the staining buffer) was performed, and the cells were analyzed by flow cytometry using CytoFLEX (Beckman Coulter, Inc., Brea, CA, USA).

[3] = Homo sapiens, MCF7, 48 h incubation

Structure (SMILES) | IC50 (MCF-7 cells; 48 h incubation) | IC50 (HL-60 cells [1]) | IC50 (HUVEC cells) | IC50 (MCF-7 cells; [3]) | IC50 (HL-60 cells [1]; Homo sapiens, HL-60, 48 h) | IC50 (HUVEC cells; Homo sapiens, HUVEC) | melting point | apoptotic cells (cleaved PARP positive) population (HL-60 cells [2]; 1.35 µM) | apoptotic cells (cleaved PARP positive) population (HL-60 cells [2]; 1.8 µM)
N.N.O=C([O-])C1(C(=O)[O-])CCC1.[Pt+2] [Carboplatin, reference compound] | 2900 ± 100 nM | 3800 ± 450 nM | 5350 ± 50 nM |  |  |  |  |  | 
C=C1C(=O)c2ccccc2N(S(=O)(=O)c2ccccc2)C1C(C)C (stereo not shown) [Compound 5b, 3-Methylidene-1-(phenylsulfonyl)-2-(propan-2-yl)-2,3-dihydroquinolin-4(1H)-one] |  | 290 ± 20 nM |  | 830 ± 20 nM | < 300 nM | 780 ± 210 nM | 86 °C |  | 
C=C1C(=O)c2ccccc2N(S(=O)(=O)c2ccccc2)C1c1ccccc1 (stereo not shown) [Compound 5c, 3-Methylidene-2-phenyl-1-(phenylsulfonyl)-2,3-dihydroquinolin-4(1H)-one] |  |  |  | 2250 ± 200 nM | 1360 ± 130 nM |  | 150 °C |  | 
C=C1C(=O)c2ccccc2N(S(=O)(=O)c2ccccc2)C1c1ccc(OC)cc1 (stereo not shown) [Compound 5d, 2-(4-Methoxyphenyl)-3-methylidene-1-(phenylsulfonyl)-2,3-dihydroquinolin-4(1H)-one] |  |  |  | 1210 ± 240 nM | 1120 ± 370 nM |  | 152 °C |  | 
C=C1C(=O)c2ccccc2N(S(=O)(=O)c2ccc(Cl)cc2)C1CC (stereo not shown) [Compound 5e, 1-((4-Chlorophenyl)sulfonyl)-2-ethyl-3-methylidene-2,3-dihydroquinolin-4(1H)-one] |  |  |  | 1610 ± 70 nM | 370 ± 50 nM | 750 nM | 118 °C |  | 
C=C1C(=O)c2ccccc2N(S(=O)(=O)c2ccc(Cl)cc2)C1C(C)C (stereo not shown) [Compound 5f, 1-((4-Chlorophenyl)sulfonyl)-3-methylidene-2-(propan-2-yl)-2,3-dihydroquinolin-4(1H)-one] |  | 230 ± 10 nM |  | 860 ± 20 nM | < 300 nM | 990 ± 70 nM | 126 °C |  | 
C=C1C(=O)c2ccccc2N(S(=O)(=O)c2ccc(Cl)cc2)C1c1ccccc1 (stereo not shown) [Compound 5g] |  |  |  | 1890 ± 30 nM | 780 ± 70 nM |  | 178 °C |  | 
C=C1C(=O)c2ccccc2N(S(=O)(=O)c2ccc(Cl)cc2)C1c1ccc(OC)cc1 (stereo not shown) [Compound 5h, 1-((4-Chlorophenyl)sulfonyl)-2-(4-methoxyphenyl)-3-methylidene-2,3-dihydroquinolin-4(1H)-one] |  |  |  | 2100 ± 160 nM | 920 ± 10 nM |  | 140 °C |  | 
C=C1C(=O)c2cc(OC)c(OC)cc2N(S(=O)(=O)c2ccc(C)cc2)C1CC (stereo not shown) [Compound 5i, 2-Ethyl-6,7-dimethoxy-3-methylidene-1-tosyl-2,3-dihydroquinolin-4(1H)-one] |  |  |  | 1010 ± 50 nM | 370 ± 20 nM | 420 ± 80 nM | 168 °C |  | 
C=C1C(=O)c2cc(OC)c(OC)cc2N(S(=O)(=O)c2ccc(C)cc2)C1C(C)C (stereo not shown) [Compound 5j, 6,7-Dimethoxy-3-methylidene-2-(propan-2-yl)-1-tosyl-2,3-dihydroquinolin-4(1H)-one] |  |  |  | 1440 ± 70 nM | 430 ± 20 nM | 990 ± 70 nM | 150 °C |  | 
C=C1C(=O)c2cc(OC)c(OC)cc2N(S(=O)(=O)c2ccc(C)cc2)C1c1ccccc1 (stereo not shown) [Compound 5k, 6,7-Dimethoxy-3-methylidene-2-phenyl-1-tosyl-2,3-dihydroquinolin-4(1H)-one] |  |  |  | 1460 ± 90 nM | 580 ± 20 nM |  | 196 °C |  | 
C=C1C(=O)c2cc(OC)c(OC)cc2N(S(=O)(=O)c2ccc(C)cc2)C1c1ccc(OC)cc1 (stereo not shown) [Compound 5l, 6,7-Dimethoxy-2-(4-methoxyphenyl)-3-methylidene-1-tosyl-2,3-dihydroquinolin-4(1H)-one] |  |  |  | 1150 ± 40 nM | 1480 ± 60 nM |  | 196 °C |  | 
C=C1C(=O)c2cc(Cl)ccc2N(S(=O)(=O)c2ccc(C)cc2)C1CC (stereo not shown) [Compound 5m, 6-Chloro-2-ethyl-3-methylidene-1-tosyl-2,3-dihydroquinolin-4(1H)-one] |  |  |  | 3480 ± 420 nM | 1750 ± 30 nM |  | 126 °C |  | 
C=C1C(=O)c2cc(Cl)ccc2N(S(=O)(=O)c2ccc(C)cc2)C1C(C)C (stereo not shown) [Compound 5n, 6-Chloro-3-methylidene-2-(propan-2-yl)-1-tosyl-2,3-dihydroquinolin-4(1H)-one] |  |  |  | 1650 ± 50 nM | 670 ± 10 nM | 680 ± 30 nM | 130 °C |  | 
C=C1C(=O)c2cc(Cl)ccc2N(S(=O)(=O)c2ccc(C)cc2)C1c1ccccc1 (stereo not shown) [Compound 5o, 6-Chloro-3-methylidene-2-phenyl-1-tosyl-2,3-dihydroquinolin-4(1H)-one] |  |  |  | 3670 ± 410 nM | 2040 ± 50 nM |  | 162 °C |  | 
C=C1C(=O)c2cc(Cl)ccc2N(S(=O)(=O)c2ccc(C)cc2)C1c1ccc(OC)cc1 (stereo not shown) [Compound 5p, 6-Chloro-2-(4-methoxyphenyl)-3-methylidene-1-tosyl-2,3-dihydroquinolin-4(1H)-one] |  |  |  | 3600 ± 190 nM | 2070 ± 20 nM |  | 150 °C |  | 
C=C1C(=O)c2cc(Br)ccc2N(S(=O)(=O)c2ccc(C)cc2)C1CC (stereo not shown) [Compound 5q, 6. -Bromo-2-ethyl-3-methylidene-1-tosyl-2,3-dihydroquinolin-4(1H)-one] |  |  |  | 1830 ± 150 nM | 610 ± 40 nM | 1000 ± 220 nM | 132 °C |  | 
C=C1C(=O)c2cc(Br)ccc2N(S(=O)(=O)c2ccc(C)cc2)C1C(C)C (stereo not shown) [Compound 5r, 6-Bromo-3-methylidene-2-(propan-2-yl)-1-tosyl-2,3-dihydroquinolin-4(1H)-one] |  | 190 ± 30 nM |  | 830 ± 20 nM | < 300 nM | 470 ± 30 nM | 118 °C |  | 
C=C1C(=O)c2cc(Br)ccc2N(S(=O)(=O)c2ccc(C)cc2)C1c1ccccc1 (stereo not shown) [Compound 5s, 6-Bromo-3-methylidene-2-phenyl-1-tosyl-2,3-dihydroquinolin-4(1H)-one] |  |  |  | 2670 ± 50 nM | 620 ± 10 nM |  | 162 °C |  | 
C=C1C(=O)c2cc(Br)ccc2N(S(=O)(=O)c2ccc(C)cc2)C1c1ccc(OC)cc1 (stereo not shown) [Compound 5t, 6-Bromo-2-(4-methoxyphenyl)-3-methylidene-1-tosyl-2,3-dihydroquinolin-4(1H)-one] |  |  |  | 2810 ± 50 nM | 740 ± 60 nM |  | 168 °C |  | 
CCOP(=O)(OCC)C1=C(O)c2ccccc2N(S(=O)(=O)c2ccccc2)C1CC (stereo not shown) [Compound 10a] |  |  |  |  |  |  |  | 20.6% | 26.4%
